In patent US7507716B2, “Method for treating pain with prolactin antagonists” (Board of Regents, The University of Texas System, priority 2005, dated 2009):

Experiments:
PRL mRNA = test: Real-time RT-PCR of PRL mRNA in trigeminal ganglia; assay type: in vivo, rat
Text: The S.A.M. and GeneSpring 5.1 analyses identified 18 genes whose expression increased and 3 genes whose expression decreased. […] The expression profile of genes selected using the microarray screen was confirmed by real-time RT-PCR. Validated primers were used for each gene and expression was normalized to the housekeeping gene 18S. Data are presented as mean±SEM (n=5/group, **=p<0.01 and ***=p<0.001 versus respective vehicle control; two-tailed unpaired T test). […] For this reason, PRL was selected for further study as a candidate therapeutic target for female-biased pain disorders.
Reactions were performed using primers specific for PRL gene and the internal control (18S). Data were normalized to the relative amount of OVX (vehicle) PRL mRNA/18S. Data are presented as mean±SEM (n=5/group, **=p<0.01 and ***=p<0.001 vs. PRL mRNA of the OVX/Vehicle group; one-way ANOVA with Bonferroni's post hoc test). […] Moreover, the relative PRL mRNA expression in the TG of intact female rats during proestrous was 78-fold greater (p<0.001). The TG samples collected from these groups were also subjected to Western blot analysis to determine the relative expression of PRL protein. […] The results obtained from these experiments were quantified as described in the METHODS section. […] The specificity of anti-PRL antibodies was evaluated by a use of the blocking peptide corresponding to the epitope of PRL. Pre-absorption of anti-PRL antibodies with the blocking peptide nearly eliminated the PRL-specific band (FIGS. 2B, 2C).
RNA isolation: Harvested TG tissue from OVX (treated with vehicle or estradiol) or intact proestrous female rats were immediately frozen in liquid nitrogen and ground in a pre-chilled mortar. The ground tissue was used to isolate total RNA by the guanidinium thiocyanate method as described previously (Chomczynski and Sacchi, 1987). […] Additional RNA sample aliquots were used as template for the quantitative real time RT-PCR experiments.
Quantitative Real Time RT-PCR (qRT-PCR): Total RNA (100 ng) was used as template in a one-step RT-PCR protocol. […]

TG neurons = test: Capsaicin-evoked iCGRP release from cultured TG neurons (RIA); assay type: cell-based, rat; details: PRL 40 nM, capsaicin 50 nM
Method: Release of iCGRP from cultured neurons was measured by radioimmunoassay. Data are presented as mean % of vehicle±SEM (n=4/group, *=P<0.05 and **=P<0.01 vs. iCGRP levels of each control group; two-tailed unpaired T test).
Rat trigeminal ganglia (TG) primary cultures: The TG from ovariectomized or intact female rats were quickly removed after decapitation and neuronal cultures were prepared as previously described (Fehrenbacher et al., 2005; Patwardhan et al., 2005). The trypsin treatment was omitted in TG cultures prepared for electrophysiological recording and Ca^2+ imaging. Cells were plated on 24 well Poly-D-Lysine coated plates (for iCGRP experiments), 6 well Poly-D-Lysine plates (for PRL release experiments), Poly-D-Lysine/laminin-coated coverslips (for single cell studies) or 10 cm plates (for phosphorylation experiments), respectively. The TG cultures were maintained at 37° C. and 5% CO2. […] The media were replaced at the end of 24 h and then 48 h later.
CGRP release assay: All culture experiments were performed on day 5 at 37° C. using modified Hanks (Gibco) buffer (10.9 mM HEPES, 4.2 mM sodium bicarbonate, 10 mM dextrose and 0.1% bovine serum albumin were added to 1× Hanks). After two initial washes, a 15 min baseline sample was collected. […]

## C[C@]12CC[C@@H]3c4ccc(O)cc4CC[C@H]3[C@@H]1CC[C@@H]2O [estradiol, 17-β-estradiol]
PRL mRNA; OVX rats undergoing estradiol replacement, summary statement
  PRL mRNA estradiol responsiveness in TG neurons: > 40 fold
PRL mRNA; OVX rats with estradiol replacement 80 μg/kg/day×10 days, normalized to 18S, FIG. 2A
  increase in PRL mRNA expression in TG vs OVX control rats: approximately 50 fold
PRL mRNA; TG of OVX rats, 80 μg/kg/day for 10 days vs vehicle, normalized to 18S, FIG. 1
  increase in PRL mRNA expression in response to estradiol: 48 fold

B1: PRL: Ovine PRL [oPRL-21, BIO] provided by NHPP; prolactin polypeptide hormone (protein, UniProt P01240 31-229, looked up)
Prolactin: TPVCPNGPGNCQVSLRDLFDRAVMVSHYIHNLSSEMFNEFDKRYAQGKGFITMALNSCHTSSLPTPEDKEQAQQTHHEVLMSLILGLLRSWNDPLYHLVTEVRGMKGVPDAILSRAIEIEEENKRLLEGMEMIFGQVIPGAKETEPYPVWSGLPSLQTKDEDARHSAFYNLLHCLRRDSSKIDTYLKLLNCRIIYNNNC
TG neurons; OVX TG neurons cultured 5 days with 50 nM estradiol
  PRL sensitization of capsaicin-evoked iCGRP release: significantly restored
TG neurons; OVX TG neurons cultured in the absence of E2
  PRL sensitization of capsaicin-evoked iCGRP release: no effect was observed
